The results in this text go back to US11059780B2, “Substituted pyrrolidine compound and use thereof” (Takeda Pharmaceutical Company Limited, priority 2017, dated 2021).

This assay concerns the target T1, human orexin type 2 receptor (hOX2R) (Homo sapiens, UniProt O43614).
T1 construct: expressed in transfected cells
T1 sequence (O43614 1-444): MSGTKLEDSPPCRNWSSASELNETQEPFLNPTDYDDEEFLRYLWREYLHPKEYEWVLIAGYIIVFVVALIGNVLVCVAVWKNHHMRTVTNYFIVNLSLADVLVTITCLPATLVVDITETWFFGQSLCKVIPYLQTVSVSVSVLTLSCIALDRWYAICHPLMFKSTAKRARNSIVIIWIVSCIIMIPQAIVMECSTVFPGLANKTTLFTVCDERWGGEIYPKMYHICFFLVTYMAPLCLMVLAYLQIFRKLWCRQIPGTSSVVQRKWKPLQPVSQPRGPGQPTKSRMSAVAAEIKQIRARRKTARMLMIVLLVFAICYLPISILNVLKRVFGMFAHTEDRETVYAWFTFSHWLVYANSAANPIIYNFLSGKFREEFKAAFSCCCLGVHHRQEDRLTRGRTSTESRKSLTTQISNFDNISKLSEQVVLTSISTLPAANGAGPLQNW
Nature of the assay: Measurement of orexin type 2 receptor agonist activity (Fluo-4 calcium fluorescence, CHO cells forcibly expressing human OX2 receptor). In kind it is cell-based. The conditions noted are these: test compound 3 μM, DMSO = 0%, orexin A (human) 10 nM = 100%. In a few lines:
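CHO-dhfr cells stably expressing human OX2 receptor, loaded with Fluo-4 AM in HBSS/HEPES/BSA with probenecid, then given test compound at 3 μM. Calcium fluorescence recorded for about 2 min 40 s by FDSS; activity normalized to DMSO (0%) and 10 nM human orexin A (100%).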
For the compound `COc1cccc(C)c1C(=O)N1CC(OC)C(Oc2cccc(CS(=O)(=O)N3CCCC3c3ccc(C)nc3C)c2)C1` (stereo not drawn) [Example 124, trans-3-(3-(((2-(2,6-dimethylpyridin-3-yl)pyrrolidin-1-yl)sulfonyl)methyl)phenoxy)-4-methoxypyrrolidin-1-yl)(2-methoxy-6-methylphenyl)methanone], the “OX2R agonist activity (3 μM, %)” value is recorded as 99%.
The value for `CO[C@@H]1CN(C(=O)c2cc(C)ccc2C)C[C@H]1Oc1cccc(NS(=O)(=O)N2CCCC2C)c1` (relative stereo) [Example 23, trans-N-(3-((1-(2,5-dimethylbenzoyl)-4-methoxypyrrolidin-3-yl)oxy)phenyl)-2-methylpyrrolidine-1-sulfonamide] was 60%; that for `COC1CN(C(=O)c2cc(C)ccc2C)CC1Oc1cccc(NS(=O)(=O)N2C[C@H]3C[C@H]2C3)c1` (relative stereo) [Example 64, trans-N-(3-((1-(2,5-dimethylbenzoyl)-4-methoxypyrrolidin-3-yl)oxy)phenyl)-2-azabicyclo[2.1.1]hexane-2-sulfonamide] was 75%.
As to `CO[C@@H]1CN(C(=O)c2c(C)cccc2C)C[C@H]1Oc1cccc(NS(=O)(=O)N2CC3CC3C2)c1` (stereo partly drawn) [Example 120, N-(3-(((3R,4R)-1-(2,6-dimethylbenzoyl)-4-methoxypyrrolidin-3-yl)oxy)phenyl)-3-azabicyclo[3.1.0]hexane-3-sulfonamide], the “OX2R agonist activity (3 μM, %)” value was 107%.
In the case of `COC1CN(C(=O)c2cc(C)ccc2C)CC1Oc1cc(NS(=O)(=O)N2C[C@@H]3C[C@H]3C2)cc(C)n1` (relative stereo) [Example 117, trans-N-(2-((1-(2,5-dimethylbenzoyl)-4-methoxypyrrolidin-3-yl)oxy)-6-methylpyridin-4-yl)-3-azabicyclo[3.1.0]hexane-3-sulfonamide] it was 93%; in that of `CO[C@@H]1CN(C(=O)c2cc(C)ccc2C)C[C@H]1Oc1cccc(NS(=O)(=O)N(C)C2COC2)c1` (relative stereo) [Example 45, trans-N′-(3-((1-(2,5-dimethylbenzoyl)-4-methoxypyrrolidin-3-yl)oxy)phenyl)-N-methyl-N-oxetan-3-ylsulfuric diamide], 82%; in that of `COC1CN(C(=O)c2cc(C)ccc2C)CC1Oc1cccc(NS(=O)(=O)N2CC[C@@H]3C[C@H]32)c1` (relative stereo) [Example 72, trans-N-(3-((1-(2,5-dimethylbenzoyl)-4-methoxypyrrolidin-3-yl)oxy)phenyl)-2-azabicyclo[3.1.0]hexane-2-sulfonamide], 74%.
Turning to `CO[C@@H]1CN(C(=O)c2cc(C)ccc2C)C[C@H]1Oc1cccc(CS(=O)(=O)N(C)C2CCOCC2)c1` (relative stereo) [Example 31, trans-1-(3-((1-(2,5-dimethylbenzoyl)-4-methoxypyrrolidin-3-yl)oxy)phenyl)-N-methyl-N-(tetrahydro-2H-pyran-4-yl)methanesulfonamide], the “OX2R agonist activity (3 μM, %)” value came out at 94%.
In the case of `CO[C@@H]1CN(C(=O)c2cc(C)ccc2C)C[C@H]1Oc1cccc(CS(=O)(=O)N2CCCC2c2ccc(C)nc2)c1` (relative stereo) [Example 112, trans-(2,5-dimethylphenyl)(3-methoxy-4-(3-(((2-(6-methylpyridin-3-yl)pyrrolidin-1-yl)sulfonyl)methyl)phenoxy)pyrrolidin-1-yl)methanone] it was 77%; in that of `CCc1cccc(C)c1C(=O)N1C[C@@H](OC)[C@H](Oc2cccc(CS(=O)(=O)N(CC)C3CCOCC3)c2)C1` [Example 158, N-ethyl-1-(3-(((3R,4R)-1-(2-ethyl-6-methylbenzoyl)-4-methoxypyrrolidin-3-yl)oxy)phenyl)-N-(tetrahydro-2H-pyran-4-yl)methanesulfonamide], 83%.
Turning to `COC(=O)C1COCCN1S(=O)(=O)Cc1cccc(O[C@@H]2CN(C(=O)c3cc(C)ccc3C)C[C@H]2OC)c1` (relative stereo) [Example 12, methyl trans-4-((3-((1-(2,5-dimethylbenzoyl)-4-methoxypyrrolidin-3-yl)oxy)benzyl)sulfonyl)morpholine-3-carboxylate], the “OX2R agonist activity (3 μM, %)” value was 60%.
Turning to `CO[C@@H]1CN(C(=O)c2cc(C)ccc2C)C[C@H]1Oc1cccc(CS(=O)(=O)N2CCC23COC3)c1` (relative stereo) [Example 34, trans-(2,5-dimethylphenyl)(3-methoxy-4-(3-((6-oxa-1-azaspiro[3.3]hept-1-ylsulfonyl)methyl)phenoxy)pyrrolidin-1-yl)methanone], the “OX2R agonist activity (3 μM, %)” value came to 87%.
On to `CO[C@@H]1CN(C(=O)c2cc(C)ccc2C)C[C@H]1Oc1cccc(NS(=O)(=O)N2CCC(C)C2)c1` (relative stereo) [Example 68, trans-N-(3-((1-(2,5-dimethylbenzoyl)-4-methoxypyrrolidin-3-yl)oxy)phenyl)-3-methylpyrrolidine-1-sulfonamide], for which the “OX2R agonist activity (3 μM, %)” value came to 84%.
In the case of `COC1CN(C(=O)c2cc(C)ccc2C)CC1Oc1cccc(NS(=O)(=O)N2C[C@@H]3CC[C@@H](C2)O3)c1` (relative stereo) [Example 80, trans-N-(3-((1-(2,5-dimethylbenzoyl)-4-methoxypyrrolidin-3-yl)oxy)phenyl)-8-oxa-3-azabicyclo[3.2.1]octane-3-sulfonamide] it was 94%.
In the case of `CO[C@@H]1CN(C(=O)c2c(C)cccc2C2CC2)C[C@H]1Oc1cccc(OS(=O)(=O)N(C)C2CCOCC2)c1` (relative stereo) [Example 163, trans-3-((1-(2-cyclopropyl-6-methylbenzoyl)-4-methoxypyrrolidin-3-yl)oxy)phenyl methyl(tetrahydro-2H-pyran-4-yl)sulfamate], the “OX2R agonist activity (3 μM, %)” value was 97%.
The value for `CO[C@@H]1CN(C(=O)c2cc(C)ccc2C)C[C@H]1Oc1cccc(NS(=O)(=O)N2CCOC(C)C2)c1` (relative stereo) [Example 54, trans-N-(3-((1-(2,5-dimethylbenzoyl)-4-methoxypyrrolidin-3-yl)oxy)phenyl)-2-methylmorpholine-4-sulfonamide] was 85%.
In the case of `CO[C@@H]1CN(C(=O)c2cc(C)ccc2C)C[C@H]1Oc1cccc(CS(=O)(=O)N2CCCC2c2ccccn2)c1` (relative stereo) [Example 15, trans-(2,5-dimethylphenyl)(3-methoxy-4-(3-(((2-(pyridin-2-yl)pyrrolidin-1-yl)sulfonyl)methyl)phenoxy)pyrrolidin-1-yl)methanone] it was 80%; in that of `CO[C@@H]1CN(C(=O)c2cc(C)ccc2C)C[C@H]1Oc1cccc(NS(=O)(=O)N2CCC(c3cccnc3)C2)c1` (relative stereo) [Example 53, trans-N-(3-((1-(2,5-dimethylbenzoyl)-4-methoxypyrrolidin-3-yl)oxy)phenyl)-3-(pyridin-3-yl)pyrrolidine-1-sulfonamide], 99%; in that of `CCc1cccc(C)c1C(=O)N1C[C@@H](OC)[C@H](Oc2cccc(CS(=O)(=O)N(C)C3CCOCC3)c2)C1` [Example 146, 1-(3-(((3R,4R)-1-(2-ethyl-6-methylbenzoyl)-4-methoxypyrrolidin-3-yl)oxy)phenyl)-N-methyl-N-(tetrahydro-2H-pyran-4-yl)methanesulfonamide], 105%.
